In patent US8372617B2, “β-galactoside-α2,6-sialyltransferase, a gene encoding thereof, and a method for enhancing enzyme activity” (Japan Tobacco Inc., priority 2007, dated 2013):
Values joined by “and” are separate entries in the source; they are usually repeats but may differ in a detail not shown here. Identical values can stand only once.

System: recombinant β-galactoside-α2,6-sialyltransferase N1C0
Assay: Transfer of sialic acid to glycoproteins
Format: biochemical, Photobacterium leiognathi
Conditions: enzyme +; 30° C. for 0.5 hours
Procedure: As a glycosyl acceptor substrate, asialofetuin and asialomucin were each used. Asialofetuin or asialomucin (2 mg) was dissolved in 1 ml of 20 mM Bis-Tris buffer (pH 7.0) and used as a glycosyl acceptor substrate solution. As a glycosyl donor substrate, CMP-NeuAc was used. The glycosyl acceptor substrate solution (40 μl), the glycosyl donor substrate (5 μl) and the enzyme solution (5 μl) were mixed and incubated at 30° C. for 0.5 hours to cause sialic acid transfer reaction. After completion of the reaction, the reaction solution was gel-filtered by being applied to a Sephadex G-50 Superfine (0.8×18.0 cm) equilibrated with 0.1 M sodium chloride. A glycoprotein-containing eluate fraction (2-4 ml fraction) from gel filtration was collected and measured for its radioactivity using a liquid scintillation counter to quantify sialic acid transferred to the glycosyl acceptor substrate.

recombinant β-galactoside-α2,6-sialyltransferase N1C0, sequence (as listed by the source): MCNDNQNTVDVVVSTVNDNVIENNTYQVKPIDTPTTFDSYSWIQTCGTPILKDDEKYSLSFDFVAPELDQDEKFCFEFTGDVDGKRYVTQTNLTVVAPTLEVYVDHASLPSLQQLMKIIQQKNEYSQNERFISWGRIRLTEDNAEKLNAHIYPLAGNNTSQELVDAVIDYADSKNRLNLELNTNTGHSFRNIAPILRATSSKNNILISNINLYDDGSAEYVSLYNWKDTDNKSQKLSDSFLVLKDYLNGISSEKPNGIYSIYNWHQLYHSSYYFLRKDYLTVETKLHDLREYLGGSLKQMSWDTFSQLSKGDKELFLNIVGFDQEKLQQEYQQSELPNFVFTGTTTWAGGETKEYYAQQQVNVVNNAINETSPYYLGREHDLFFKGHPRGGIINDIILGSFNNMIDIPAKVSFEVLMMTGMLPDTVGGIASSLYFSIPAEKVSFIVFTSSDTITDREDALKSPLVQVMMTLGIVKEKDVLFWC

With “Asialofetuin: glycoprotein used as glycosyl acceptor substrate” the “NeuAc transferred (cpm)” value was 2140 cpm and 2038 cpm.
